Organism: Rattus norvegicus
Assay: DrugMatrix - Regimen: Daily Repeat
Type: toxicity, organism-based, Sprague-Dawley
Design: regimen Daily Repeat, gender Male, age 6-8 weeks
Conditions: in vivo, po, route oral GAVAGE, […]; for ABSOLUTE BASOPHIL / ABSOLUTE EOSINOPHIL / ABSOLUTE LYMPHOCYTE / ABSOLUTE SEGMENTED NEUTROPHIL / BASOPHIL / EOSINOPHIL / ERYTHROCYTE COUNT / HEMATOCRIT / HEMOGLOBIN / LEUKOCYTE COUNT / LYMPHOCYTE / MEAN CORPUSCULAR HEMOGLOBIN / MEAN CORPUSCULAR HEMOGLOBIN CONCENTRATION / MEAN CORPUSCULAR VOLUME / MONOCYTE / NEUTROPHIL / NUCLEATED RED BLOOD CELLS / PLATELET COUNT: tissue Blood; for ALANINE AMINOTRANSFERASE / ALBUMIN / ALKALINE PHOSPHATASE / ASPARTATE AMINOTRANSFERASE / BLOOD UREA NITROGEN / CARBON DIOXIDE / CHLORIDE / CHOLESTEROL / CREATINE PHOSPHOKINASE / CREATININE / GLUCOSE / LACTATE DEHYDROGENASE / LIPASE / PHOSPHORUS / POTASSIUM / SODIUM / TOTAL BILIRUBIN / TOTAL PROTEIN / URIC ACID: tissue Plasma
[1] = 0 mg/kg, 72 h, dose level Control, time 3 day
[2] = 0 mg/kg, 120 h, dose level Control, time 5 day
[3] = 15 mg/kg, 72 h, dose level Low, time 3 day

CCC(C)(C)C(=O)O[C@H]1C[C@@H](C)C=C2C=C[C@H](C)[C@H](CC[C@@H]3C[C@@H](O)CC(=O)O3)[C@H]21 [SIMVASTATIN]
ABSOLUTE BASOPHIL [1]: 0 CELLS/uL | ABSOLUTE EOSINOPHIL [1]: 14 CELLS/uL | ABSOLUTE LYMPHOCYTE [1]: 11144.67 CELLS/uL | ABSOLUTE SEGMENTED NEUTROPHIL [1]: 535.5 CELLS/uL | BASOPHIL [1]: 0% | EOSINOPHIL [1]: 0.17% | ERYTHROCYTE COUNT [1]: 5.08 x10E6/uL | HEMATOCRIT [1]: 32.32% | HEMOGLOBIN [1]: 12.87 G/DL | LEUKOCYTE COUNT [1]: 11.72 x10E3/uL | LYMPHOCYTE [1]: 94.67% | MEAN CORPUSCULAR HEMOGLOBIN [1]: 25.37 pg | MEAN CORPUSCULAR HEMOGLOBIN CONCENTRATION [1]: 39.85 G/DL | MEAN CORPUSCULAR VOLUME [1]: 63.58 fL | MONOCYTE [1]: 0.17% | NEUTROPHIL [1]: 5% | NUCLEATED RED BLOOD CELLS [1]: 0 /100WBC | PLATELET COUNT [1]: 1084 x10E3/uL | ALANINE AMINOTRANSFERASE [1]: 67.5 u/L | ALBUMIN [1]: 4.02 G/DL | ALKALINE PHOSPHATASE [1]: 374.17 u/L | ASPARTATE AMINOTRANSFERASE [1]: 83.5 u/L | BLOOD UREA NITROGEN [1]: 14.5 mg/dL | CARBON DIOXIDE [1]: 30 mmol/L | CHLORIDE [1]: 100.5 MEQ/L | CHOLESTEROL [1]: 71.33 mg/dL | CREATINE PHOSPHOKINASE [1]: 268.33 u/L | CREATININE [1]: 0.16 mg/dL | GLUCOSE [1]: 170.5 mg/dL | LACTATE DEHYDROGENASE [1]: 81.17 u/L | LIPASE [1]: 16.67 u/L | PHOSPHORUS [1]: 10.07 mg/dL | POTASSIUM [1]: 5.03 MEQ/L | SODIUM [1]: 142.92 MEQ/L | TOTAL BILIRUBIN [1]: 0.17 mg/dL | TOTAL PROTEIN [1]: 5.63 G/DL | URIC ACID [1]: 0.5 mg/dL | ABSOLUTE BASOPHIL [2]: 0 CELLS/uL | ABSOLUTE EOSINOPHIL [2]: 37.5 CELLS/uL | ABSOLUTE LYMPHOCYTE [2]: 8049.5 CELLS/uL | ABSOLUTE SEGMENTED NEUTROPHIL [2]: 646.83 CELLS/uL | BASOPHIL [2]: 0% | EOSINOPHIL [2]: 0.5% | ERYTHROCYTE COUNT [2]: 5.36 x10E6/uL | HEMATOCRIT [2]: 33.9% | HEMOGLOBIN [2]: 13.02 G/DL | LEUKOCYTE COUNT [2]: 8.82 x10E3/uL | LYMPHOCYTE [2]: 90.17% | MEAN CORPUSCULAR HEMOGLOBIN [2]: 24.32 pg | MEAN CORPUSCULAR HEMOGLOBIN CONCENTRATION [2]: 38.42 G/DL | MEAN CORPUSCULAR VOLUME [2]: 63.32 fL | MONOCYTE [2]: 1.17% | NEUTROPHIL [2]: 8.17% | NUCLEATED RED BLOOD CELLS [2]: 0.17 /100WBC | PLATELET COUNT [2]: 1231.5 x10E3/uL | ALANINE AMINOTRANSFERASE [2]: 62 u/L | ALBUMIN [2]: 3.97 G/DL | ALKALINE PHOSPHATASE [2]: 303.67 u/L | ASPARTATE AMINOTRANSFERASE [2]: 84.5 u/L | BLOOD UREA NITROGEN [2]: 14.83 mg/dL | CARBON DIOXIDE [2]: 31.83 mmol/L | CHLORIDE [2]: 97 MEQ/L | CHOLESTEROL [2]: 68.83 mg/dL | CREATINE PHOSPHOKINASE [2]: 411.33 u/L | CREATININE [2]: 0.16 mg/dL | GLUCOSE [2]: 170.17 mg/dL | LACTATE DEHYDROGENASE [2]: 88.5 u/L | LIPASE [2]: 9.5 u/L | PHOSPHORUS [2]: 9.98 mg/dL | POTASSIUM [2]: 5.72 MEQ/L | SODIUM [2]: 141.62 MEQ/L | TOTAL BILIRUBIN [2]: 0.1 mg/dL | TOTAL PROTEIN [2]: 5.67 G/DL | URIC ACID [2]: 0.52 mg/dL | ABSOLUTE BASOPHIL [3]: 0 CELLS/uL | ABSOLUTE EOSINOPHIL [3]: 0 CELLS/uL | ABSOLUTE LYMPHOCYTE [3]: 9235.67 CELLS/uL | ABSOLUTE SEGMENTED NEUTROPHIL [3]: 962.33 CELLS/uL | BASOPHIL [3]: 0% | EOSINOPHIL [3]: 0% | ERYTHROCYTE COUNT [3]: 5.23 x10E6/uL | HEMATOCRIT [3]: 32.6% | HEMOGLOBIN [3]: 12.9 G/DL | LEUKOCYTE COUNT [3]: 10.33 x10E3/uL | LYMPHOCYTE [3]: 89.33% | MEAN CORPUSCULAR HEMOGLOBIN [3]: 24.7 pg | MEAN CORPUSCULAR HEMOGLOBIN CONCENTRATION [3]: 39.57 G/DL | MEAN CORPUSCULAR VOLUME [3]: 62.4 fL | MONOCYTE [3]: 1.33% | NEUTROPHIL [3]: 9.33% | NUCLEATED RED BLOOD CELLS [3]: 0 /100WBC | PLATELET COUNT [3]: 1186.33 x10E3/uL | ALANINE AMINOTRANSFERASE [3]: 75 u/L | ALBUMIN [3]: 4.07 G/DL | ALKALINE PHOSPHATASE [3]: 310.67 u/L | ASPARTATE AMINOTRANSFERASE [3]: 85.33 u/L | BLOOD UREA NITROGEN [3]: 14 mg/dL | CARBON DIOXIDE [3]: 29.33 mmol/L | CHLORIDE [3]: 103 MEQ/L | CHOLESTEROL [3]: 68.67 mg/dL | CREATINE PHOSPHOKINASE [3]: 229.33 u/L | CREATININE [3]: 0.12 mg/dL | GLUCOSE [3]: 170.33 mg/dL | LACTATE DEHYDROGENASE [3]: 76.33 u/L | LIPASE [3]: 10 u/L | PHOSPHORUS [3]: 9.87 mg/dL | POTASSIUM [3]: 5.16 MEQ/L | SODIUM [3]: 146.93 MEQ/L | TOTAL BILIRUBIN [3]: 0.13 mg/dL | TOTAL PROTEIN [3]: 5.67 G/DL | URIC ACID [3]: 0.77 mg/dL

Reference: ChEMBL document CHEMBL3885881, “DrugMatrix”
